Data from article PMC7296828 (Biochemistry, 2020).

Molecular target: T1, Ribonuclease 6 (RNase 6, RNase K6) (Homo sapiens, UniProt Q93091)
T1 sequence (Q93091 24-150): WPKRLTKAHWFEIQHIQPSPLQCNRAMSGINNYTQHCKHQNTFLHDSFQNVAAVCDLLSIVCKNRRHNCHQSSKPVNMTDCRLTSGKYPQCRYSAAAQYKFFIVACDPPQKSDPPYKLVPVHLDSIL
Assay: X-ray crystal structure
Type: binding

- Kd: 154 ± 5 µM
SMILES: Nc1ncnc2c1ncn2[C@@H]1O[C@H](COP(=O)(O)O)[C@@H](O)[C@H]1O [5’-AMP]
